Reference: patent publication US20120115724A1, “METHOD OF CONTROLLING UNDESIRED VEGETATION” (SYNGENTA CROP PROTECTION LLC, priority 2009, published 2012)

Experiments:
Assay type in all cases: in vivo
[1] = test system: Alopecurus myosuroides (ALOMY); assay: Post-emergence biological efficacy (Example 14); settings: Alopecurus myosuroides, 312 h; post-emergence, 1,000 g/ha, after 13 days; read-out: Percentage damage ALOMY
Method in brief: (§1)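 Pots were sprayed 8 days after sowing at 250 or 1000 g/ha, applied from acetone/water (50:50) with 0.5% Tween 20. Plants were grown in a glasshouse at 24/16° C. day/night, 14 h light and 65% humidity. Damage was scored 13 days later on a 0–100 scale, where 100 is total damage.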

[2] = test system: Amaranthus retroflexus (AMARE); assay: Post-emergence biological efficacy (Example 14); settings: Amaranthus retroflexus, 312 h; post-emergence, 1,000 g/ha, after 13 days; read-out: Percentage damage AMARE
Method in brief: as §1

[3] = test system: Echinochloa crus-galli (ECHCG); assay: Post-emergence biological efficacy (Example 14); settings: Echinochloa crus-galli, 312 h; post-emergence, 1,000 g/ha, after 13 days; read-out: Percentage damage ECHCG
Method in brief: as §1

[4] = test system: Ipomea hederaceae (IPOHE); assay: Post-emergence biological efficacy (Example 14); settings: Ipomoea hederacea, 312 h; post-emergence, 1,000 g/ha, after 13 days; read-out: Percentage damage IPOHE
Method in brief: as §1

Setaria faberi (SETFA) = assay: Post-emergence biological efficacy (Example 14); settings: Setaria faberi, 312 h; post-emergence, 1,000 g/ha, after 13 days; read-out: Percentage damage SETFA
Method in brief: as §1

Solanum nigrum (SOLNI) = assay: Post-emergence biological efficacy (Example 14); settings: Solanum nigrum, 312 h; post-emergence, 1,000 g/ha, after 13 days; read-out: Percentage damage SOLNI
Method in brief: as §1

[5] = test system: ABUTH Abutilon theophrasti; assay: Post-emergence crop and weed test (Example 15); settings: 360 h, after 15 days, read-out: Percentage damage ABUTH
Method in brief: (§2)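 Plants grown 14 days in a glasshouse (22/16 °C, 16 h light, 65% humidity) were sprayed post-emergence with active ingredient from a solvent/emulsifier stock diluted in water with 0.2% X-77. Damage was scored 15 days later on a 0–100 scale, where 100 is total damage.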

[6] = test system: AMARE Amaranthus retroflexus; assay: Post-emergence crop and weed test (Example 15); settings: 360 h, after 15 days, read-out: Percentage damage AMARE
Method in brief: as §2

[7] = test system: EPHHL Euphorbia heterophylla; assay: Post-emergence crop and weed test (Example 15); settings: 360 h, after 15 days, read-out: Percentage damage EPHHL
Method in brief: as §2

GLXMA Soybean [8] = assay: Post-emergence crop and weed test (Example 15); settings: Glycine max, 360 h, after 15 days, read-out: Percentage damage GLXMA
Method in brief: as §2

IPOHE Ipomoea hederacea = assay: Post-emergence crop and weed test (Example 15); settings: 360 h, after 15 days, read-out: Percentage damage IPOHE
Method in brief: as §2

KCHSC Kochia scoparia = assay: Post-emergence crop and weed test (Example 15); settings: Bassia scoparia, 360 h, after 15 days, read-out: Percentage damage KCHSC
Method in brief: as §2

[9] = test system: POLCO Polygonum convolvulus; assay: Post-emergence crop and weed test (Example 15); settings: Fallopia convolvulus, 360 h, after 15 days, read-out: Percentage damage POLCO
Method in brief: as §2

SIDSP Sida spinosa = assay: Post-emergence crop and weed test (Example 15); settings: 360 h, after 15 days, read-out: Percentage damage SIDSP
Method in brief: as §2

SINAR Sinapis arvensis = assay: Post-emergence crop and weed test (Example 15); settings: Mutarda arvensis, 360 h, after 15 days, read-out: Percentage damage SINAR
Method in brief: as §2

VERPE Veronica persica = assay: Post-emergence crop and weed test (Example 15); settings: 360 h, after 15 days, read-out: Percentage damage VERPE
Method in brief: as §2

[10] = test system: XANST Xanthium strumarium; assay: Post-emergence crop and weed test (Example 15); settings: 360 h, after 15 days, read-out: Percentage damage XANST
Method in brief: as §2

[11] = test system: AMARE Amaranthus retroflexus; assay: Pre-emergence crop and weed test (Example 16); settings: after 20 days
Protocol: (§3) Seeds of crop and representative weed species were sown in standard soil in pots. After cultivation for 1 day under controlled conditions in a glasshouse (at 22/16° C., day/night; 16 hours light; 65% humidity), the plants were sprayed. The spray solution was prepared by dissolving the technical active ingredient in acetone containing 10.56 wt % Emulsogen EL, 42.22 wt % N-methylpyrrolidone and 2.22 wt % DPG-monoethyl ether to give a 5% stock solution. This was then diluted with water containing 0.2% (v/v) of the adjuvant X-77 to give the desired treatment concentration.
(§4) The test plants were then grown on under controlled conditions in a glasshouse (at 22/16° C., day/night; 16 hours light; 65% humidity) and watered twice daily. After 20 days the test was evaluated (100=total damage to plant; 0=no damage to plant).
(§5) Species as for Post-Emergence Test.

[12] = test system: EPHHL Euphorbia heterophylla; assay: Pre-emergence crop and weed test (Example 16); settings: after 20 days
Protocol: as §3, §4, §5

GALAP Galium aparine = assay: Pre-emergence crop and weed test (Example 16); settings: after 20 days
Protocol: as §3, §4, §5

GLXMA Soybean [13] = assay: Pre-emergence crop and weed test (Example 16); settings: after 20 days
Protocol: as §3, §4, §5

For `C/C=C\c1c(N)nc(-c2ccc(Cl)c(N(C)C)c2F)nc1C(=O)OC` [Compound 5, (Z)-4-Amino-2-(4-chloro-3-dimethylamino-2-fluorophenyl)-6-methoxy-carbonyl-5-(prop-1-enyl)-pyrimidine], the pest or weed control at 1000 g/ha [1] was 60%, the pest or weed control at 1000 g/ha [2] was 100% and the pest or weed control at 1000 g/ha [3] was 70%. For the same compound, the pest or weed control at 1000 g/ha [4] was 30%, the pest or weed control at 1000 g/ha (Setaria faberi (SETFA)) was 70% and the pest or weed control at 1000 g/ha (Solanum nigrum (SOLNI)) was 80%. The pest or weed control at 30 g/ha ([5]; 30 g/ha) was 40%, the pest or weed control at 30 g/ha ([6]; 30 g/ha) was 90% and the pest or weed control at 30 g/ha ([7]; 30 g/ha) was 60%. It also gave a plant injury at 30 g/ha (GLXMA Soybean [8]; 30 g/ha) of 0%, a pest or weed control at 30 g/ha (IPOHE Ipomoea hederacea; 30 g/ha) of 0% and a pest or weed control at 30 g/ha (KCHSC Kochia scoparia; 30 g/ha) of 70%. For the same compound, the pest or weed control at 30 g/ha ([9]; 30 g/ha) was 90%, the pest or weed control at 30 g/ha (SIDSP Sida spinosa; 30 g/ha) was 0% and the pest or weed control at 30 g/ha (SINAR Sinapis arvensis; 30 g/ha) was 80%. The pest or weed control at 30 g/ha (VERPE Veronica persica; 30 g/ha) was 60%, the pest or weed control at 30 g/ha ([10]; 30 g/ha) was 70% and the “Percentage damage AMARE” value ([11]; 125 g/ha) was 90%. For the same compound, the “Percentage damage EPHHL” value ([12]; 125 g/ha) was 100%, the “Percentage damage GALAP” value (GALAP Galium aparine; 125 g/ha) was 100% and the “Percentage damage GLXMA” value (GLXMA Soybean [13]; 125 g/ha) was 0%.

For `C/C=C\c1c(N)nc(-c2ccc(Cl)c(OC)c2F)nc1C(=O)OC` [Compound 4, (Z)-4-Amino-2-(4-chloro-2-fluoro-3-methoxy-phenyl)-6-methoxy-carbonyl-5-(prop-1-enyl)-pyrimidine], the pest or weed control at 1000 g/ha [1] was 70%, the pest or weed control at 1000 g/ha [2] was 100% and the pest or weed control at 1000 g/ha [3] was 80%. For the same compound, the pest or weed control at 1000 g/ha [4] was 100%, the pest or weed control at 1000 g/ha (Setaria faberi (SETFA)) was 90% and the pest or weed control at 1000 g/ha (Solanum nigrum (SOLNI)) was 80%. The pest or weed control at 8 g/ha ([5]; 8 g/ha) was 60%, the pest or weed control at 8 g/ha ([6]; 8 g/ha) was 80% and the pest or weed control at 8 g/ha ([7]; 8 g/ha) was 90%. For the same compound, the plant injury at 8 g/ha (GLXMA Soybean [8]; 8 g/ha) was 20%, the pest or weed control at 8 g/ha (IPOHE Ipomoea hederacea; 8 g/ha) was 70% and the pest or weed control at 8 g/ha (KCHSC Kochia scoparia; 8 g/ha) was 30%. For the same compound, the pest or weed control at 8 g/ha ([9]; 8 g/ha) was 70%, the pest or weed control at 8 g/ha (SIDSP Sida spinosa; 8 g/ha) was 50% and the pest or weed control at 8 g/ha (SINAR Sinapis arvensis; 8 g/ha) was 60%. The pest or weed control at 8 g/ha (VERPE Veronica persica; 8 g/ha) was 80%, the pest or weed control at 8 g/ha ([10]; 8 g/ha) was 90% and the “Percentage damage AMARE” value ([11]; 125 g/ha) was 100%. For the same compound, the “Percentage damage EPHHL” value ([12]; 125 g/ha) was 100%, the “Percentage damage GALAP” value (GALAP Galium aparine; 125 g/ha) was 80% and the “Percentage damage GLXMA” value (GLXMA Soybean [13]; 125 g/ha) was 10%.

`C/C=C/c1c(N)nc(-c2ccc(Cl)c(OC)c2F)nc1C(=O)OC` [Compound 3, (E)-4-Amino-2-(4-chloro-2-fluoro-3-methoxy-phenyl)-6-methoxy-carbonyl-5-(prop-1-enyl)-pyrimidine] showed a pest or weed control at 1000 g/ha [1] of 90%, a pest or weed control at 1000 g/ha [2] of 100% and a pest or weed control at 1000 g/ha [3] of 100%. The pest or weed control at 1000 g/ha [4] was 90%, the pest or weed control at 1000 g/ha (Setaria faberi (SETFA)) was 100% and the pest or weed control at 1000 g/ha (Solanum nigrum (SOLNI)) was 100%. It also gave a pest or weed control at 125 g/ha ([5]; 125 g/ha) of 80%, a pest or weed control at 125 g/ha ([6]; 125 g/ha) of 100% and a pest or weed control at 125 g/ha ([7]; 125 g/ha) of 90%. It also gave a plant injury at 125 g/ha (GLXMA Soybean [8]; 125 g/ha) of 0%, a pest or weed control at 125 g/ha (IPOHE Ipomoea hederacea; 125 g/ha) of 80% and a pest or weed control at 125 g/ha (KCHSC Kochia scoparia; 125 g/ha) of 80%. For the same compound, the pest or weed control at 125 g/ha ([9]; 125 g/ha) was 90%, the pest or weed control at 125 g/ha (SIDSP Sida spinosa; 125 g/ha) was 80% and the pest or weed control at 125 g/ha (SINAR Sinapis arvensis; 125 g/ha) was 70%. The pest or weed control at 125 g/ha (VERPE Veronica persica; 125 g/ha) was 80%, the pest or weed control at 125 g/ha ([10]; 125 g/ha) was 80% and the “Percentage damage AMARE” value ([11]; 30 g/ha) was 80%. The “Percentage damage EPHHL” value ([12]; 30 g/ha) was 100%, the “Percentage damage GALAP” value (GALAP Galium aparine; 30 g/ha) was 100% and the “Percentage damage GLXMA” value (GLXMA Soybean [13]; 30 g/ha) was 0%.
